Test results reported in patent publication US12662491B2 (Redona Therapeutics, Inc., priority 2020, dated 2026).

target: T1, Zcchc11 enzyme (Homo sapiens, UniProt Q5TAX3); test: TUTase assay (Zcchc11 assay, Lin28a-dependent polyuridylation of pre-let-7); format: biochemical; settings: Lin28a-dependent Zcchc11 (Z11) TUTase assay; read-out: Potency Lin28a-dep Z11 IC50
T1 construct: made in house; host or cells: HEK293 cells (Zcchc11); E. coli Rosetta II (LIN28A)
T1 sequence (Q5TAX3 212-1420): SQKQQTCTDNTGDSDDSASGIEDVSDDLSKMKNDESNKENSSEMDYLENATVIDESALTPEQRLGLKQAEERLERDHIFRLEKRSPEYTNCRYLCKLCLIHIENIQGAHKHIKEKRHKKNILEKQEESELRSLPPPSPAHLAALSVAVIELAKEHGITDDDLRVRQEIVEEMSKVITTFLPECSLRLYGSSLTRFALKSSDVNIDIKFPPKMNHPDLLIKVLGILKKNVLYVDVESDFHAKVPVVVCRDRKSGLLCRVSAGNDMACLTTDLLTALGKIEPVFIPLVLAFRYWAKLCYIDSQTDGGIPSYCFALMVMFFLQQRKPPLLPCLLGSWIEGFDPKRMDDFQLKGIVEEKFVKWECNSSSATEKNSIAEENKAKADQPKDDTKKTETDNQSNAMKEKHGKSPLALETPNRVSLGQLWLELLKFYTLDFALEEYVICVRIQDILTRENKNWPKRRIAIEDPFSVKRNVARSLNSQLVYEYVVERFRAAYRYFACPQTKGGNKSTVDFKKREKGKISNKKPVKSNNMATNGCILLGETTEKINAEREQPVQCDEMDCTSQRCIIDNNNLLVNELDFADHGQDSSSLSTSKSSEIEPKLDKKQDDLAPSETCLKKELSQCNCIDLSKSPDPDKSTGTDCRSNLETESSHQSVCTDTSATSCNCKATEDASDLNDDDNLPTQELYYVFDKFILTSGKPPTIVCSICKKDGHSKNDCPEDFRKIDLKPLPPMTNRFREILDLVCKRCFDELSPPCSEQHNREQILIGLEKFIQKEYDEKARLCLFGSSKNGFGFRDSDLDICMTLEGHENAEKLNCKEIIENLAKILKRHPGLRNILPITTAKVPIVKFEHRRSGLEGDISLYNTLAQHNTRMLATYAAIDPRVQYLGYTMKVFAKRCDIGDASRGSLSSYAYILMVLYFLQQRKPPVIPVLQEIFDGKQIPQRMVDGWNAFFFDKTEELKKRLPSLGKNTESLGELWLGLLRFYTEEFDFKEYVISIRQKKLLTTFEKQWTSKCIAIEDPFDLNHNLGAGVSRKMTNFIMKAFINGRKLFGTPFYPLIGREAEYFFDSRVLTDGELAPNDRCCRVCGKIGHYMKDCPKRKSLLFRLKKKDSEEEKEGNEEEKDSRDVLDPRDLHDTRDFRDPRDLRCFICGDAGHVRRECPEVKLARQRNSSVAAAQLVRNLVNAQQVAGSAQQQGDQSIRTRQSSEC
Outline: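 HEK293-expressed human Zcchc11 (residues 212-1420, 0.2 nM) with 10 nM LIN28A and 2 nM 5′-fluorescein pre-let-7, preincubated 30 min at room temperature, pH 7.3. Started with 5 uM UTP; poly(U) tails quenched by 3′-rhodamine A20 probe, read kinetically. IC50 from early-rate four-parameter fit; no-UTP wells define 0%.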

IC50, ≤ 1000 nM:
COc1ccc(Cl)c(OC[C@H]2CCCN2c2cc3c(cc2Cl)c(=O)c(C(=O)O)cn3-c2ccnc(N)c2)n1 [Example 644, (R)-1-(2-aminopyridin-4-yl)-6-chloro-7-(2-(((3-chloro-6-methoxypyridin-2-yl)oxy)methyl)pyrrolidin-1-yl)-4-oxo-1,4-dihydroquinoline-3-carboxylic acid]
CN(C)C1CN(c2ccc(-n3cc(C(=O)O)c(=O)c4cc(Cl)c(N5CCC[C@@H]5COc5nc6c(ccn6C)cc5Cl)cc43)cn2)C1 [Example 645, (R)-6-chloro-7-(2-(((5-chloro-1-methyl-1H-pyrrolo[2,3-b]pyridin-6-yl)oxy)methyl)pyrrolidin-1-yl)-1-(6-(3-(dimethylamino)azetidin-1-yl)pyridin-3-yl)-4-oxo-1,4-dihydroquinoline-3-carboxylic acid]
COc1ccc(Cl)c(OC[C@H]2CCCN2c2cc3c(cc2F)c(=O)c(C(=O)O)cn3-c2cnnc(N)c2)n1 [Example 646, (R)-1-(6-aminopyridazin-4-yl)-7-(2-(((3-chloro-6-methoxypyridin-2-yl)oxy)methyl)pyrrolidin-1-yl)-6-fluoro-4-oxo-1,4-dihydroquinoline-3-carboxylic acid]
Nc1ccc(-n2cc(C(=O)O)c(=O)c3cc(Cl)c(N4CCC[C@@H]4COc4nc(OC5CC5)ccc4Cl)cc32)cn1 [Example 647, (R)-1-(6-aminopyridin-3-yl)-6-chloro-7-(2-(((3-chloro-6-cyclopropoxy-pyridin-2-yl)oxy)methyl)pyrrolidin-1-yl)-4-oxo-1,4-dihydroquinoline-3-carboxylic acid]
COc1ccc(Cl)c(OC[C@H]2CC(C)(C)CN2c2cc3c(cc2Cl)c(=O)c(C(=O)O)cn3-c2ccc(N3CC(N(C)C)C3)nc2)n1 [Example 648, (R)-6-chloro-7-(2-(((3-chloro-6-methoxypyridin-2-yl)oxy)methyl)-4,4-dimethylpyrrolidin-1-yl)-1-(6-(3-(dimethylamino)azetidin-1-yl)pyridin-3-yl)-4-oxo-1,4-dihydroquinoline-3-carboxylic acid]
COc1ccc(Cl)c(OC[C@H]2CC(C)(C)CN2c2cc3c(cc2Cl)c(=O)c(C(=O)O)cn3-c2ccc(N)nc2)n1 [Example 649, (R)-1-(6-aminopyridin-3-yl)-6-chloro-7-(2-(((3-chloro-6-methoxypyridin-2-yl)oxy)methyl)-4,4-dimethylpyrrolidin-1-yl)-4-oxo-1,4-dihydroquinoline-3-carboxylic acid]
COc1ccc(Cl)c(OC[C@H]2CC(C)(C)CN2c2cc3c(cc2Cl)c(=O)c(C(=O)O)cn3-c2ccnc(N)c2)n1 [Example 650, (R)-1-(2-aminopyridin-4-yl)-6-chloro-7-(2-(((3-chloro-6-methoxypyridin-2-yl)oxy)methyl)-4,4-dimethylpyrrolidin-1-yl)-4-oxo-1,4-dihydroquinoline-3-carboxylic acid]
COc1cnc(OC[C@H]2CC3CC3N2c2cc3c(cc2Cl)c(=O)c(C(=O)O)cn3-c2ccc(N)nc2)c(Cl)c1 (stereo partly drawn) [Example 651, 1-(6-aminopyridin-3-yl)-6-chloro-7-((3R)-3-(((3-chloro-5-methoxypyridin-2-yl)oxy)methyl)-2-azabicyclo[3.1.0]hexan-2-yl)-4-oxo-1,4-dihydroquinoline-3-carboxylic acid]
CN(C)C1CN(c2ccc(-n3cc(C(=O)O)c(=O)c4cc(Cl)c(N5CCC[C@@H]5COc5nc6nc[nH]c6cc5Cl)cc43)cn2)C1 [Example 652, (R)-6-chloro-7-(2-(((6-chloro-3H-imidazo[4,5-b]pyridin-5-yl)oxy)methyl)pyrrolidin-1-yl)-1-(6-(3-(dimethylamino)azetidin-1-yl)pyridin-3-yl)-4-oxo-1,4-dihydroquinoline-3-carboxylic acid]
